Test: molar heat capacity at constant pressure
Details: 101.33 kPa, Small (less than 1 g) adiabatic calorimetry

COc1ccc(C2(c3ccc(OC)c(C)c3)OC(=O)c3ccccc32)cc1C [3,3-bis(4-methoxy-3-methylphenyl)-1(3H)-isobenzofuranone]
molar heat capacity at constant pressure [J/K/mol]
Details	Crystal	Glass
122.17 K	213.95	–
122.52 K	–	216.46
124.01 K	216.41	–
124.36 K	–	219.13
125.87 K	218.89	–
126.22 K	–	221.66
127.75 K	221.61	–
128.1 K	–	224.36
129.65 K	224.19	–
129.99 K	–	227.11
131.57 K	226.74	–
131.9 K	–	229.75
133.5 K	229.52	–
133.83 K	–	232.44
135.45 K	232.5	–
135.78 K	–	234.99
137.41 K	235.25	–
137.74 K	–	237.67
139.4 K	237.93	–
139.72 K	–	240.4
141.4 K	240.84	–
141.72 K	–	243.28
143.41 K	243.44	–
143.74 K	–	246.09
145.45 K	246.17	–
145.77 K	–	248.92
147.5 K	249.06	–
147.82 K	–	251.76
149.57 K	252.1	–
149.89 K	–	254.31
151.66 K	254.85	–
151.97 K	–	257.37
153.77 K	257.6	–
154.07 K	–	260.38
155.89 K	260.26	–
156.2 K	–	263.17
158.03 K	263.29	–
158.33 K	–	266.05
160.19 K	265.94	–
160.48 K	–	269
162.37 K	268.95	–
162.64 K	–	272.01
164.56 K	271.82	–
164.81 K	–	275.02
166.77 K	274.83	–
167 K	–	277.98
169 K	277.76	–
169.19 K	–	280.78
171.25 K	280.87	–
171.4 K	–	283.98
173.51 K	283.67	–
173.62 K	–	286.89
175.79 K	286.71	–
175.85 K	–	289.88
178.09 K	289.96	293
180.35 K	–	296.49
180.41 K	293.2	–
182.62 K	–	299.4
182.75 K	296.08	–
184.9 K	–	302.23
185.1 K	299.36	–
187.19 K	–	305.37
187.47 K	302.25	–
189.49 K	–	308.6
189.86 K	305.36	–
191.81 K	–	311.72
192.26 K	308.64	–
194.14 K	–	314.93
194.69 K	311.89	–
196.48 K	–	318.26
197.13 K	315.34	–
198.84 K	–	321.49
199.32 K	317.71	–
201.2 K	–	324.99
201.85 K	321.03	–
203.58 K	–	328.08
204.39 K	324.18	–
205.97 K	–	331.65
206.95 K	328.02	–
208.37 K	–	334.98
209.51 K	331.38	–
210.79 K	–	338.72
212.09 K	334.57	–
213.22 K	–	342.02
214.68 K	337.96	–
215.66 K	–	345.52
217.29 K	341.78	–
218.12 K	–	349.05
219.9 K	345.52	–
220.58 K	–	352.67
222.52 K	348.92	–
223.06 K	–	355.96
225.16 K	352.6	–
225.55 K	–	359.74
227.81 K	355.97	–
228.02 K	–	362.84
